# Measurements reported in US12098139B2, “Chemokine receptor modulators and uses thereof” (RAPT Therapeutics, Inc., priority 2018, dated 2024).
# System: ovalbumin-induced pulmonary inflammation
# Test: Murine model of ovalbumin-induced pulmonary inflammation (BALF cell counts and mediators)
# Assay type: in vivo, mouse (female Balb/c)
# Conditions: for IL-5 levels in BALF: vs OVA group (FIG. 3)
# Method: A study was performed to investigate the effects of daily oral administration of the compound 2-((R)-3-(1-(1-((R)-1-(2,4-Dichlorophenyl)ethyl)-3-(cyano)-1H-pyrazolo[3,4-b]pyrazin-6-yl)azetidin-3-yl)piperidin-1-yl)ethan-1-ol (FLX-A-12) (disclosed in US Patent Publication 2018-0072740 published Mar. 15, 2018) and the compound (1R,3r)-3-((R)-3-(1-(5-chloro-4-(((R)-1-(2,4-dichlorophenyl)ethyl)amino)-6-methylpyrimidin-2-yl)azetidin-3-yl)piperidin-1-yl)-1-methylcyclobutane-1-carboxylic acid (FLX-B-10) (disclosed in Example 38 herein) on the level of lung eosinophilia in a murine model of ovalbumin-induced pulmonary inflammation. An automated system of haematological cellular analysis (DASIT Sysmex XT-2000iV) was used to perform total and differential cell counts and assess the degree of ovalbumin challenge-induced pulmonary eosinophilia. FLX-A-12 and FLX-B-10 were administered daily for five days at the doses of 50 and 30-100 mg/kg respectively, and eosinophilic inflammation was measured 24 hours after the last ovalbumin challenge. Dexamethasone was included as a positive reference substance (3 mg/kg p.o. daily). On days 20-23 inclusive, mice received vehicle (30% PG in water), reference compound (Dexamethasone, 3 mg/kg) and test compounds (FLX-A-12 at 50 mg/kg and FLX-B-10 at 30 and 100 mg/kg), 1 hr prior ovalbumin challenge via the p.o. route. In addition, the test compounds (FLX-A-12 and FLX-B-10) were dosed on day 19 24 hr prior to the dosing on day 20.
# FLX-A-12 was formulated at the concentration of 5 mg/mL (corresponding to the dose of 50 mg/kg in a dose volume of 10 mL/kg) in 30% PG in water. The doses of FLX-B-10 (30 and 100 mg/kg) were prepared by dissolving 3 and 10 mg/ml of the compound respectively in 30% PG in water at a dose volume of 10 ml/kg. The dose of Dexamethasone (3 mg/kg) was prepared by dissolving 0.3 mg/mL of the compound in 30% PG in water at a dose volume of 10 ml/kg.
# The effects of FLX-A-12 and FLX-B-10 were assessed in the ovalbumin mouse model of pulmonary inflammation. The study was performed in female Balb/c mice, and included the following 6 treatment groups (n=10/group): (i) Vehicle group: challenged with saline and dosed with compound Vehicle, 1 hr before challenge; (ii) OVA/Vehicle group (control): challenged with ovalbumin and dosed with compound Vehicle, 1 hr before challenge; (iii) OVA/FLX-A-12 50 mg/kg (p.o.): challenged with ovalbumin and dosed with FLX-A-12, 1 hr before challenge; (iv) OVA/FLX-B-10 30 mg/kg (p.o.): challenged with ovalbumin and dosed with FLX-B-10, 1 hr before challenge; (v) OVA/FLX-B-10 100 mg/kg (p.o.): challenged with ovalbumin and dosed with FLX-B-10, 1 hr before challenge; and (vi) Dexamethasone 3 mg/kg (p.o.) group: challenged with ovalbumin and dosed with Dexamethasone, 1 hr before challenge.
# The eosinophilic inflammation induced by ovalbumin-challenge (i.n.) was measured as cell count increase in bronchoalveolar lavage fluid (BALF) using an automated system of haematological cellular analysis (DASIT Sysmex XT-2000iV) at 24 hours after the last OVA-challenge. The effects of the test compounds were evaluated as ability to decrease the eosinophilic inflammation with respect to the OVA group.
# For antigen sensitization, on day 1, animals received 10 μg of OVA in 2 mg of Aluminium hydroxide hydrate (AlOH3) at a dose volume of 200 μl per mouse subcutaneously (s.c.). On day 14, all animals got a second (boost) s.c. injection with the same dose of Alum/OVA as above.
# On days 20-23 inclusive, mice received vehicle, 30% PG in water, reference compound (Dexamethasone 3 mg/kg) and test compounds (FLX-A-12 at 50 mg/kg and FLX-B-10 at 30 and 100 mg/kg), 1 hr prior OVA challenge via the p.o. route. In addition, test compounds (FLX-A-12 and FLX-B-10) were dosed on day 19, 24 hr prior to the dosing on day 20. All compounds were administered at a dose volume of 10 ml/kg. Dose volumes were calculated based on individual animal weight. […]
smiles,measurement,setting,value
"C[C@@H]1C[C@H]2[C@@H]3CCC4=CC(=O)C=C[C@]4(C)[C@@]3(F)[C@@H](O)C[C@]2(C)[C@@]1(O)C(=O)CO [Dexamethasone, dexamethasone, reference compound]",percentage of reduction in the eosinophilic cell count in BALF,"3 mg/kg p.o. daily, 24 hours after last ovalbumin challenge, vs OVA group",92%
"Cc1nc(N2CC([C@H]3CCCN([C@H]4C[C@](C)(C(=O)O)C4)C3)C2)nc(N[C@H](C)c2ccc(Cl)cc2Cl)c1Cl [FLX-B-10, (1R,3r)-3-((R)-3-(1-(5-chloro-4-(((R)-1-(2,4-dichlorophenyl)ethyl)amino)-6-methylpyrimidin-2-yl)azetidin-3-yl)piperidin-1-yl)-1-methylcyclobutane-1-carboxylic acid]",CCL-22 in BALF,30 mg/kg p.o. (FIG. 6),"significantly reduced in all conditions, except for FLX-B-10 at 30 mg/kg"
same,IL-5 levels in BALF,100 mg/kg p.o.,significantly reduced
same,"IL-13 in BALF, dose dependence",30 and 100 mg/kg p.o. (FIG. 4),dose-dependent decrease
same,"CCL-22 in BALF, dose dependence",30 and 100 mg/kg p.o. (FIG. 6),dose-dependent decrease
same,reduction of eosinophilic inflammation (BALF) with respect to the OVA group,"30 and 100 mg/kg p.o., 24 hours after last ovalbumin challenge",statistically significant reduction of eosinophilic inflammation only at 100 mg/kg
"C[C@H](c1ccc(Cl)cc1Cl)n1nc(C#N)c2ncc(N3CC([C@H]4CCCN(CCO)C4)C3)nc21 [FLX-A-12, 2-((R)-3-(1-(1-((R)-1-(2,4-Dichlorophenyl)ethyl)-3-(cyano)-1H-pyrazolo[3,4-b]pyrazin-6-yl)azetidin-3-yl)piperidin-1-yl)ethan-1-ol, reference compound]",IL-5 levels in BALF,50 mg/kg p.o.,significantly reduced
